Read-outs that look alike come from different tables or passages of the source.
Target: T1, PTBP1 RRM12 (Homo sapiens, UniProt P26599)
T1 construct: (P57-V265); MBP (from pMAL vector); His tag; made in house; host or cells: E. coli BL21 DE3 RIL
T1 sequence (P26599 57-265): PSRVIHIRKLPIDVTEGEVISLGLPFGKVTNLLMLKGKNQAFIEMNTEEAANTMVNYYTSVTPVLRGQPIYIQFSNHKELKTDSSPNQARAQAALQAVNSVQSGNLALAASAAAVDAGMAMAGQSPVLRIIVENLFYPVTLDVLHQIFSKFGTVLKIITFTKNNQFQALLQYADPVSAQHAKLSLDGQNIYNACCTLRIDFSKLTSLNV
Assay: Competitive fluorescence polarization assay between RRM12 and RNA-2
Assay type: binding
From the text: For the initial design we used the i, i + 4 strategy where two (S)-pentenyl alanines (S5) were introduced in positions with three other amino acids in between. We picked three different amino acid pairs to replace with the S5 amino acids based on their orientation as observed in the NMR structures (P-2, P-3 and P-4, Fig. 2B and C).[25] To prevent the staple from disturbing the interaction between the ligand and the protein we chose positions facing away from the binding site forming the pairs Ala145/Ala149, Gln148/Gln152, and Ala149/Ala153. The three peptides were synthesized on Rink amide resin and the linear peptides were treated with a Grubbs catalyst to connect the S5 residues. To avoid a mixture of E/Z-diastereomers we reduced the alkene in the linker of the staple using a solution phase hydrogenation protocol.[43] The linear equivalent P-1 was synthesized for comparison but had to be extended on the C-terminus with an arginine residue to improve its solubility. The C-terminus is away from the binding surface and this modification was therefore not expected to have an impact on the binding affinity. The peptides were tested in a competitive fluorescence polarization assay using the RRM12 construct and RNA-2 (Fig. 2C and S2 ^†). […] As the staple is expected to stabilize the α-helical conformation we used circular dichroism (CD) spectroscopy to evaluate the helicity of the peptides. […] It is possible that although P-4 was more helical than P-3, the replacement of Gln148 with the hydrophobic linker disturbed the interaction since the side chain amide potentially interacts with the RRM1 surface. […]
size exclusion chromatography (Superdex 75 16/60 or 26/60) with SEC buffer (50 mM Tris, 200 mM NaCl). Protein homogeneity was assessed by the size exclusion chromatogram and purity was checked by SDS-PAGE analysis to be >= 90%.
The gene encoding for SRSF1-RRM12 (1-195) was subcloned into pOPIN-His expression vector and expressed in E. coli BL21 (DE3). A pre-culture of transformed bacteria was made followed by expression in LB-Medium (100 µg/ml Ampicillin, 1 mM IPTG, 18 °C, 160 rpm overnight) after growing the culture at 37 °C, 160 rpm to an OD600 of 0.6. The harvested cells (5000 x g, 4 °C, 15 min) were resuspended in Buffer ASRSF1 (50 mM Na2HPO4 pH 8.0, 300 mM KCl, 50 mM L-Arg, 50 mM L-Gly, 1.5 mM MgCl2) supplemented with 1 mM PMSF followed by lysis through sonification. The protein was purified using a HisTrap HP 5 ml column (GE-Healthcare) using a gradient of Buffer BSRSF1 (50 mM Na2HPO4 pH 8.0, 300 mM KCl, 50 mM L-Arg, 50 mM L-Gly, 1.5 mM MgCl2, 500 mM Imidazole) followed by dialysis into wash buffer (50 mM Na2HPO4 pH 8.0, 300 mM KCl, 50 mM L-Arg, 50 mM L-Gly, 1.5 mM MgCl2, 40 mM Imidazole) and a second run of the affinity column. The protein containing fractions were afterwards dialyzed into wash buffer with tag-cleavage using His-tagged 3C protease. The cleaved construct was subsequently used for a third affinity column run collecting the unbound fraction which was dialyzed into storage buffer (20 mM Na2HPO4 pH 8.0, 150 mM KCl, 50 mM L-Arg, 50 mM L-Gly, 1.5 mM MgCl2, 0.2 mM EDTA, 1 mM TCEP).
Purification of hnRNP A2/B1
The MBP-tagged hnRNP A2/B1 construct (1-251) was expressed from a pOPIN-His-MBP vector in E. coli BL21 (DE3) RIPL cells. A pre-culture in TB (0.01% lactose, 2mM MgSO4, 100 µg/ml ampicillin, 50 µg/ml chloramphenicol) was used to inoculate the expression culture with a starting OD600 of 0.05 at 37 °C. Expression was autoinduced at 37 °C for 4 h followed by expression over night at 25 °C. Harvested cells (5000 x g, 15 min, 4 °C) were resuspended in Buffer AhnRNPA2/B1 (50 mM HEPES pH 8.0, 300 mM NACl, 20 mM Imidazole, 1 mM TCEP) supplemented with 1 mM PMSF) and lysed with a microfluidizer.
Immobilized metal affinity chromatography was performed using a HisTrap FF crude 5 ml column. The loaded protein was washed with wash buffer (50 mM HEPES pH 8.0, 300 mM NaCl, 30 mM Imidazole, […]

[1] = Fig. 2C, 5 nM FAM-RNA-2, protein at 50-70 % probe binding, FP buffer pH 8.0, 20 °C, 30 min, n.b. given for inactive peptides, read-out: Ki, competitive FP assay between RRM12 and RNA-2

Compound | Ki [1] [µM] | Ki (Fig. 3C experiment, competitive FP with RNA-2, read-out: P-6 Ki, construct RRM12) [µM]
CC(=O)N[C@@H](CC(N)=O)C(=O)N[C@@H](CCC(N)=O)C(=O)N[C@@]1(C)CCCCCCCC[C@@](C)(C(=O)N[C@@H](C)C(=O)N[C@@H](CC(C)C)C(=O)N[C@@H](CCC(N)=O)C(=O)N[C@@H](C)C(=O)N[C@H](C(=O)N[C@@H](CC(N)=O)C(N)=O)C(C)C)NC(=O)[C@H](CCC(N)=O)NC(=O)[C@H](C)NC(=O)[C@H](CCCNC(=N)N)NC1=O [Peptide P-2] | 11.6 | 
CC(=O)N[C@@H](CC(N)=O)C(=O)N[C@@H](CCC(N)=O)C(=O)N[C@@]1(C)CCCC=CCCCC2(CCCC=CCCC[C@](C)(C(=O)N[C@H](C(=O)N[C@@H](CC(N)=O)C(N)=O)C(C)C)NC(=O)[C@H](CCC(N)=O)NC(=O)[C@H](CC(C)C)NC(=O)[C@H](C)NC2=O)NC(=O)[C@H](CCC(N)=O)NC(=O)[C@H](C)NC(=O)[C@H](CCCNC(=N)N)NC1=O (stereo partly drawn) [Peptide P-6] | 9.3 | 8 ± 7.1
